Data reported in ChEMBL document CHEMBL5634121, “Discovery of novel G9a/GLP covalent inhibitors for the treatment of triple-negative breast cancer” (Eur J Med Chem, 2023).

Biological target: T1, Histone-lysine N-methyltransferase EHMT2 (Homo sapiens, UniProt Q96KQ7)
T1 sequence (Q96KQ7 whole entry): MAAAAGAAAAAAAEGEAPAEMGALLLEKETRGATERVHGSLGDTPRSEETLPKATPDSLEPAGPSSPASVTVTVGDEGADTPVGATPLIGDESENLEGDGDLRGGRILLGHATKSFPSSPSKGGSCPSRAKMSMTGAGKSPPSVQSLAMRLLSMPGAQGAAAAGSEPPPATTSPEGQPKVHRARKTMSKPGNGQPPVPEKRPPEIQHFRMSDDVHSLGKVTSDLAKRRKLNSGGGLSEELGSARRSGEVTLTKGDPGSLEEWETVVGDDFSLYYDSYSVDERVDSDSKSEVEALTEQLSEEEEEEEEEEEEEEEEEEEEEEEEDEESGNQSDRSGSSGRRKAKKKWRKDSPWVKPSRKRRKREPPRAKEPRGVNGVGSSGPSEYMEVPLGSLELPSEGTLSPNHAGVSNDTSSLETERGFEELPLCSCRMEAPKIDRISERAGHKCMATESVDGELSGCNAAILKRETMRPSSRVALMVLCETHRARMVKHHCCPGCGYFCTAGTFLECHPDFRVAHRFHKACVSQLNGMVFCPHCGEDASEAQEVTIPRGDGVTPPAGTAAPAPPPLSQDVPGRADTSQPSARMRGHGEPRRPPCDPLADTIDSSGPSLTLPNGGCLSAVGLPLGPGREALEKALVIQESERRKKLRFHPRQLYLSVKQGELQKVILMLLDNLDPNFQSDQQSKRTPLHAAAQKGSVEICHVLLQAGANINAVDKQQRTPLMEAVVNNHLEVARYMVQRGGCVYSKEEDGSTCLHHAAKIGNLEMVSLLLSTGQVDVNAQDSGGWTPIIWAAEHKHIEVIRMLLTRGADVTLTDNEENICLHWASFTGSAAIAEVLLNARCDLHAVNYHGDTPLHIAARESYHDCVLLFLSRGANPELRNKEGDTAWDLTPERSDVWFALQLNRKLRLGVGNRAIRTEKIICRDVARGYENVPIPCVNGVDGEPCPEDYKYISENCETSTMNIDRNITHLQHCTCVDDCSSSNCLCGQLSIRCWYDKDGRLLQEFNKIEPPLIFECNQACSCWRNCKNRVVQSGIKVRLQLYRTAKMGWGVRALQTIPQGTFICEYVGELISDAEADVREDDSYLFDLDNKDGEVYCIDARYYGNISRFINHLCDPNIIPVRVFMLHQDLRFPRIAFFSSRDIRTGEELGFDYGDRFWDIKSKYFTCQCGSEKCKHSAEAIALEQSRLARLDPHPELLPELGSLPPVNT
Assay: Inhibition of G9a (unknown origin)

IC50: 1220 nM
Structure (SMILES): C=CC(=O)Nc1cccc(-c2nc(NC3CCN(C)CC3)c3cc(OC)c(OC)cc3n2)c1
